Measured values as given in patent US6034101A, “Dosage form and method for administering drug” (ALZA Corporation, priority 1997, dated 2000).

How the values were obtained:
[1] = system: school children; experiment: Clinical study of Example 1: behavior, activity, mathematics scores and acute tolerance in school children (SKAMP, CLAM); type: in vivo, human
Procedure: (§1) The CLAM Test is a behavior rating that indicates social conformity or rebellion as developed by Conners, Lonez, and Milch and SKAMP is a rating that also measures behavior as developed by Swanson and reported in Psychopharmacological Bulletin, Vol. 21, pp. 887-890 (1985).
(§2) The effect measurements in this study were: (1) observer ratings on SKAMP scale (during classroom time) and (2) performance on the computerized mathematics test. Each child was tested on the mathematics test before the study began, and based on this pre-test during the study, a mathematics test appropriate for each child's ability was given. The morning and evening parent CLAM assessments were used to identify unusual behaviors. The evening parent CLAM was used to determine the presence of treatment effects in the evening hours, particularly treatment effects on the time the child fell asleep, and whether the child's sleep was interrupted. All of the children also wore an activity monitor (Actigraph) which records the movements of the child throughout the day. The activity (number of movements per minute) is recorded electronically and modeled as a function of the drug effect.
The immediate release tablet and the sustained-release dosage form were compared to a sustained-release dosage form that administered methylphenidate in an ascending profile. The sustained-release ascending profile corresponds to administering 4.2 mg at zero hour, 1.1 mg at 1.5 hours, 1.1 mg at 2 hours, 1.2 mg at 2.5 hours, 1.2 mg at 3.0 hours, 1.3 mg at 3.5 hours, 1.3 mg at 4 hours, 1.5 mg at 4.5 hours, 1.5 mg at 5 hours, 1.8 mg at 5.5 hours, 1.8 mg at 6 hours, and 2.0 mg at 6.5 hours, to produce the sustained-ascending release dotted line profile seen in FIG. 2.
The accompanying figures present the results of the above-described study. In FIGS. 3, 4, and 5, the line with a clear circle denotes a placebo, the dark circle an immediate release dosage form administered twice a day, the dark squares a sustained release nonascending dosage profile, and the clear squares the sustained ascending release profile provided by this invention. The SKAMP Score and CLAM Score were defined earlier in the specification, and the times are as indicated on the figures. FIG. 3 denotes the observed behavior, FIG. 4 denotes the inattention overactivity, and FIG. 5 denotes the combined attention results of the study.

[2] = system: children with attention deficient hyperactivity disorder; experiment: Clinical study of Example 2: behavior and combined attention, acquired tolerance in children with attention deficient hyperactivity disorder; type: in vivo, human; conditions: total 36 mg
Procedure: as §1, §2
The results of a clinical study that comprises administering methylphenidate according to two distinct delivery programs are reported in this example. […]

[3] = system: patients; experiment: Therapeutic response and acquired tolerance in patients (general statements); type: in vivo, human; conditions: sustained-release dosage form with constant plasma concentration; applicant's finding
[4] = system: patients; conditions: cited from earlier work
[5] = immediate release form; cited from earlier work
[6] = sustained-nonascending dose, 20 mg, vs placebo

## COC(=O)C(c1ccccc1)C1CCCCN1 (stereo not shown) [methylphenidate]
[1]; controlled-sustained ascending profile
  therapeutic effect / tolerance: desired therapeutic effect without tolerance
[1]; sustained-nonascending dose, 20 mg
  acute tolerance: development of acute tolerance
[1]; [6]
  activity: decrease in activity
  inappropriate behavior: lessening of inappropriate behavior
  mathematical scores: higher mathematical scores
[2]; sustained-ascending program, FIG. 7
  behavior, acquired tolerance: absence of acquired tolerance
[2]; sustained-ascending release, FIG. 8
  combined attention, acquired tolerance: essentially free of developed tolerance
[3]
  efficacy against acquired tolerance: lacks efficacy particularly against acquired tolerance
[4]; 5 mg dose twice a day
  tolerance: acquires tolerance
[4]; after administration
  time to development of tolerance: within hours
[4]; prior art sustained-release nonascending dosage form
  acute tolerance: often develops an acute tolerance
[5]
  half-life: short half-life
  onset: rapid onset
